Reference: the NIST ThermoML archive (doi:10.1016/j.jct.2008.04.006)
Numbers after ± are expanded uncertainties.

Assays:
[1] = refractive index (Na D-line) (dimensionless); details: 298.15 K; 101.33 kPa; Liquid; Standard Abbe refractometry
[2] = 100 kPa, Liquid
[3] = refractive index (Na D-line) (dimensionless); xn = mol fraction of the nth substance listed; details: 298.15 K, 100 kPa, Liquid, Standard Abbe refractometry
[4] = xn = mol fraction of the nth substance listed; details: 100 kPa, Liquid

COS(=O)(=O)[O-].Cn1cc[n+](C)c1 [1,3-dimethylimidazolium methylsulfate]
Details | refractive index
[1] | 1.48296 ± 0.0012

[2]
Details | mass density [kg/m3] | viscosity [mPa·s]
298.15 K | 1329.12 ± 3.6 | 77.7 ± 9.7
313.15 K | 1318.56 ± 3.5 | 41.68 ± 2.9
328.15 K | 1308.13 ± 3.5 | 25.21 ± 1.8

COS(=O)(=O)[O-].Cn1cc[n+](C)c1 [1,3-dimethylimidazolium methylsulfate] + CCO
[3]
Details | refractive index
x2 = 0 | 1.48296 ± 0.0012
x2 = 0.0669 | 1.48028 ± 0.0011
x2 = 0.1228 | 1.47773 ± 0.0011
x2 = 0.2212 | 1.47336 ± 0.001
x2 = 0.2944 | 1.46936 ± 0.00099
x2 = 0.3984 | 1.46252 ± 0.00092
x2 = 0.5 | 1.45421 ± 0.00085
x2 = 0.5926 | 1.44554 ± 0.0008
x2 = 0.6921 | 1.43248 ± 0.00076
x2 = 0.797 | 1.41494 ± 0.00072
x2 = 0.8957 | 1.39329 ± 0.00069
x2 = 0.945 | 1.37874 ± 0.00068

[4]
Details | mass density, 298.15 K [kg/m3] | mass density, 313.15 K [kg/m3] | mass density, 328.15 K [kg/m3] | viscosity, 298.15 K [mPa·s] | viscosity, 313.15 K [mPa·s] | viscosity, 328.15 K [mPa·s]
x2 = 0 | 1329.12 ± 3.6 | 1318.56 ± 3.5 | 1308.13 ± 3.5 | 77.7 ± 5.1 | 41.68 ± 1.7 | 25.21 ± 1.1
x2 = 0.0669 | 1316.47 ± 3.1 | 1305.89 ± 3.1 | 1295.53 ± 3 | 62.1 ± 2.4 | 34.42 ± 1.4 | 21.43 ± 0.94
x2 = 0.1228 | 1305.19 ± 2.8 | 1294.59 ± 2.7 | 1284.2 ± 2.7 | 51.6 ± 1.3 | 29.38 ± 1.2 | 18.72 ± 0.83
x2 = 0.2212 | 1282.46 ± 2.2 | 1271.77 ± 2.1 | 1261.38 ± 2.1 | 36.97 ± 1.4 | 22.8 ± 0.94 | 15.07 ± 0.7
x2 = 0.2944 | 1263.18 ± 1.8 | 1252.46 ± 1.8 | 1241.97 ± 1.7 | 29.56 ± 1.1 | 17.97 ± 0.77 | 12.28 ± 0.61
x2 = 0.3984 | 1231.22 ± 1.3 | 1220.4 ± 1.3 | 1209.57 ± 1.3 | 20.26 ± 0.82 | 12.87 ± 0.62 | 9.141 ± 0.53
x2 = 0.5 | 1192.8 ± 0.96 | 1181.88 ± 0.94 | 1171.12 ± 0.92 | 12.83 ± 0.61 | 8.823 ± 0.52 | 6.461 ± 0.47
x2 = 0.5926 | 1150.85 ± 0.69 | 1139.74 ± 0.67 | 1128.74 ± 0.66 | 8.784 ± 0.51 | 6.258 ± 0.47 | 4.727 ± 0.44
x2 = 0.6921 | 1094.3 ± 0.45 | 1082.98 ± 0.44 | 1071.75 ± 0.43 | 5.706 ± 0.46 | 4.309 ± 0.44 | 3.246 ± 0.42
x2 = 0.797 | 1018.1 ± 0.26 | 1006.41 ± 0.25 | 994.72 ± 0.26 | 3.513 ± 0.42 | 2.649 ± 0.41 | 2.077 ± 0.41
x2 = 0.8957 | 923.16 ± 0.2 | 910.98 ± 0.21 | 898.7 ± 0.22 | 2.096 ± 0.41 | 1.603 ± 0.41 | 1.265 ± 0.4
x2 = 0.945 | 864.26 ± 0.2 | 851.76 ± 0.21 | 839.06 ± 0.22 | 1.602 ± 0.41 | 1.225 ± 0.4 | 0.961 ± 0.4

COS(=O)(=O)[O-].Cn1cc[n+](C)c1 [1,3-dimethylimidazolium methylsulfate] + O
[3]
Details | refractive index
x2 = 0 | 1.48296 ± 0.0012
x2 = 0.0497 | 1.48187 ± 0.0012
x2 = 0.1475 | 1.47986 ± 0.0011
x2 = 0.2128 | 1.47824 ± 0.001
x2 = 0.3086 | 1.47536 ± 0.00097
x2 = 0.3869 | 1.47252 ± 0.00092
x2 = 0.4947 | 1.46739 ± 0.00085
x2 = 0.5959 | 1.46071 ± 0.00079
x2 = 0.6947 | 1.45105 ± 0.00075
x2 = 0.7966 | 1.43485 ± 0.00071
x2 = 0.8962 | 1.40572 ± 0.00069
x2 = 0.9485 | 1.37848 ± 0.00068

[4]
Details | mass density, 298.15 K [kg/m3] | mass density, 313.15 K [kg/m3] | mass density, 328.15 K [kg/m3] | viscosity, 298.15 K [mPa·s] | viscosity, 313.15 K [mPa·s] | viscosity, 328.15 K [mPa·s]
x2 = 0 | 1329.12 ± 3.6 | 1318.56 ± 3.5 | 1308.13 ± 3.5 | 77.7 ± 9.7 | 41.68 ± 2.9 | 25.21 ± 1.8
x2 = 0.0497 | 1326.99 ± 3.3 | 1316.44 ± 3.2 | 1306.09 ± 3.2 | 68.1 ± 6.1 | 37.51 ± 2.6 | 23.95 ± 1.7
x2 = 0.1475 | 1322.81 ± 2.7 | 1312.31 ± 2.6 | 1301.96 ± 2.6 | 53.6 ± 1.6 | 30.44 ± 2.1 | 19.85 ± 1.4
x2 = 0.2128 | 1319.54 ± 2.3 | 1309.03 ± 2.3 | 1298.64 ± 2.2 | 44.93 ± 3.1 | 25.86 ± 1.8 | 17.11 ± 1.2
x2 = 0.3086 | 1313.75 ± 1.9 | 1303.27 ± 1.8 | 1292.81 ± 1.8 | 35.23 ± 2.4 | 20.76 ± 1.5 | 13.79 ± 1
x2 = 0.3869 | 1307.71 ± 1.5 | 1297.25 ± 1.5 | 1286.89 ± 1.5 | 27.57 ± 1.9 | 16.93 ± 1.2 | 10.5 ± 0.83
x2 = 0.4947 | 1296.97 ± 1.1 | 1286.56 ± 1.1 | 1276.22 ± 1.1 | 19.55 ± 1.4 | 12.41 ± 0.93 | 8.521 ± 0.73
x2 = 0.5959 | 1282.77 ± 0.82 | 1272.39 ± 0.8 | 1262.04 ± 0.78 | 13.88 ± 1 | 9.041 ± 0.75 | 6.336 ± 0.62
x2 = 0.6947 | 1262.17 ± 0.58 | 1251.91 ± 0.57 | 1240.95 ± 0.55 | 9.599 ± 0.77 | 6.368 ± 0.62 | 4.518 ± 0.54
x2 = 0.7966 | 1226.82 ± 0.39 | 1216.82 ± 0.38 | 1206.64 ± 0.38 | 5.928 ± 0.6 | 4.027 ± 0.52 | 2.917 ± 0.47
x2 = 0.8962 | 1162.06 ± 0.25 | 1152.98 ± 0.24 | 1143.43 ± 0.24 | 2.925 ± 0.47 | 2.069 ± 0.44 | 1.548 ± 0.42
x2 = 0.9485 | 1100.41 ± 0.18 | 1092.64 ± 0.17 | 1084.03 ± 0.18 | 1.745 ± 0.43 | 1.261 ± 0.41 | 0.99 ± 0.41

CCO [ethanol]
Details | refractive index
[1] | 1.36023 ± 0.00068

[2]
Details | mass density [kg/m3] | viscosity [mPa·s]
298.15 K | 785.46 ± 0.24 | 1.082 ± 0.4
313.15 K | 772 ± 0.25 | 0.827 ± 0.4
328.15 K | 758.55 ± 0.26 | 0.641

CCO [ethanol] + COS(=O)(=O)[O-].Cn1cc[n+](C)c1
Details | refractive index
[3], x1 = 1 | 1.36023 ± 0.00068

[4], x1 = 1
Details | mass density [kg/m3] | viscosity [mPa·s]
298.15 K | 785.46 ± 0.24 | 1.082 ± 0.4
313.15 K | 772 ± 0.25 | 0.827 ± 0.4
328.15 K | 758.55 ± 0.26 | 0.641
